These results are taken from patent US20240246959A1, “BENZIMIDAZOLE DERIVATIVE AND PREPARATION METHOD THEREFOR AND MEDICAL USE THEREOF” (Shenzhen Salubris Pharmaceuticals Co., Ltd., priority 2020, published 2024).

One data set addresses T1, human GLP-1 R (Homo sapiens, UniProt P43220).
T1 construct: expressed in transfected cells
The experiment in a line: cAMP signal activation in human GLP1R cells (hGLP1R-U2OS, HTRF). Format: cell-based. The protocol:
A cell line stably expressing human GLP1 R (hGLP1R-U2OS) was used in this experiment. The cells were cultured in a growth medium (complete medium, DMEM+10% FBS+500 μg/mL G418 (Promega)) in an incubator at 37° C. and has 5% CO2 saturated humidity.
hGLP1R-U2OS was inoculated into 384-well plate with 1.0×10^4 cells/well (5 μL) (cell working solution: DMEM+0.1% BSA+1 mM IBMX (available from Bide Pharmatech Ltd.)), and was placed in an incubator at 37° C. and held for 30 min. The compounds to be tested were diluted stage-by-stage with Stimulation Buffer 1 (1×) in the kit, and the diluted compounds were added to the culture plate with 5 μL/well. They were incubated in an incubator at 37° C. for 30 min. Then, 5 μL/well of cAMP-d2 prepared with Lysis & Detection buffer and 5 μL/well of Anti CAMP-Cryptate working solution were added successively, and they were incubated at room temperature for 60 min before detection.
The ratio of signal emitted by donor to […] in each well was calculated as follows: HTRF rate=signal at 665 nm/signal at 620 nm×104, and then the HTRF rate was converted into a reaction rate (%). The concentration-response curve of each Example compound was created by a 4-parameter equation as Y=Bottom+(Top−Bottom)/(1+10^((Log IC50−X)*HillSlope)), and the half maximal (50%) effective concentration (EC50) was calculated.

The nature of data set [1]: Pharmacokinetic study on rat. Format: in vivo, SD rats. The settings on record: for F: 5 mg/kg p.o vs 1 mg/kg i.v; for AUC(0-t) / Cmax / clearance / half-life: male, Sprague-Dawley (SD), plasma. The text has this:
• SD rats: male, 180-250 g, purchased from Beijing Vital River Laboratory Animal Technology Co., Ltd. • Reagents: DMSO (dimethyl sulfoxide), PEG-400 (polyethylene glycol 400), physiological saline, heparin, acetonitrile, formic acid, and propranolol (internal standard), all of which are commercially available. • Instruments: Thermo Fisher Scientific LC-MS (U300 UPLC, TSQ QUANTUMN ULTRA triple quadrupole mass spectrometer).
A compound was weighed and dissolved in a DMSO-PEG-400-physiological saline (5:60:35, v/v/v) system. After the rats were administered with the compound intravenously or by gavage, 200 μL of venous blood samples were collected at 15 min, 30 min, 1 h, 2 h, 5 h, 7 h, and 24 h (for i.v. group an additional collection was performed at 5 min) in heparinized EP tubes respectively, which were centrifuged at 12,000 rpm for 2 min, and the plasma was frozen at −80° C. for further testing. A certain amount of the test substance was precisely weighed and dissolved in DMSO to obtain a stock solution with a concentration of 2 mg/mL. An appropriate amount of the stock solution of the compound was accurately pipetted and diluted with acetonitrile to prepare a standard series solution. 20 μL of each of the above standard series solution was accurately pipetted, added with 180 μL of blank plasma, and vortexed mixed to prepare plasma samples corresponding to plasma concentrations of 0.3, 1, 3, 10, 30, 100, 300, 1000, 3000 ng/mL. Two-sample analysis was performed for each concentration to establish a standard curve. 30 μL of plasma (for samples that are obtained at 5 min, 15 min, 30 min, and 1 h after intravenous administration, the plasma were diluted 10 times) was taken, added with 200 μL of a solution of internal standard propranolol in acetonitrile (50 ng/ml), and vortexed mixed. The mixture was then added with 100 μL of pure water, and vortexed and mixed again. It was centrifuged at 4000 rpm for 5 min, and the supernatant was collected for LC-MS analysis. LC-MS detection conditions were as follows. • Chromatographic column: Thermo Scientific HYPERSIL GOLD C-18 UPLC column, 100*2.1 mm, 1.7 μm. • Mobile phase: water (with 0.1% formic acid)-acetonitrile; gradient elution was performed according to the table below.
After blood drug concentrations was detected by LC-MS, WinNonlin 6.1 software was used to calculate pharmacokinetic parameters based on non-compartmental model.

T1 sequence (P43220 24-463): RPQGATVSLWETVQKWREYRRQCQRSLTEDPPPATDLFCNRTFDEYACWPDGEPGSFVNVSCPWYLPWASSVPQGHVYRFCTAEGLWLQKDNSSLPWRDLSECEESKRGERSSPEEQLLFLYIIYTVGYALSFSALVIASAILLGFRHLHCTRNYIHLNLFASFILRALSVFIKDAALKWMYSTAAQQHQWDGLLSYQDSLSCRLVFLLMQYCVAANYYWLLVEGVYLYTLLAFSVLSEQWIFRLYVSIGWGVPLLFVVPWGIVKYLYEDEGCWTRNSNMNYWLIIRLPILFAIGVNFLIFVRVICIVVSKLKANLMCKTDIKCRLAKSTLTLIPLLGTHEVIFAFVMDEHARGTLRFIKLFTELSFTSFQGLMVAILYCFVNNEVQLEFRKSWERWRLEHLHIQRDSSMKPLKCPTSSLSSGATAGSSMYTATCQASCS

`C[C@@H](c1nc2ccc(C(=O)O)cc2n1C[C@@H]1CCO1)N1CCC(c2cccc(OCc3ccc(Cl)cc3F)n2)CC1` [Example 1A, 2-((S)-1-(4-(6-((4-chloro-2-fluorobenzyl)oxy)pyridin-2-yl)piperidin-1-yl)ethyl)-1-(((S)-oxetan-2-yl)methyl)-1H-benzo[d]imidazol-6-carboxylic acid] gave an EC50 at human GLP-1 R of 1.71 nM. The same compound came in with a F in data set [1] of 49.0%. In data set [1] (iv, 1 mg/kg, i.v), this compound had an exposure AUC(0-t) of 2430 ng·h/mL, a Cmax of 2310 ng/mL, a clearance of 6.88 mL/min/kg and a half-life of 2.89 h. Moreover, in data set [1] (po, 5 mg/kg, p.o), the AUC(0-t) was determined as 5950 ng·h/mL, the peak concentration (Cmax) was 747 ng/mL and the half-life is 3.4 h.
`C[C@@H](c1nc2ccc(C(=O)O)cc2n1C[C@@H]1CCO1)N1CCC(c2cccc(OCc3ccc(C#N)cc3F)n2)CC1` [Example 2A, 2-((S)-1-(4-(6-((4-cyano-2-fluorobenzyl)oxy)pyridin-2-yl)piperidin-1-yl)ethyl)-1-(((S)-oxetan-2-yl)methyl)-1H-benzo[d]imidazol-6-carboxylic acid] returned a concentration giving a half-maximal response (EC50) at human GLP-1 R of 3.18 nM. In data set [1], this compound gave an F of 63.5%. Moreover, in data set [1] (iv, 1 mg/kg, i.v), the AUC(0-t) turned out to be 1250 ng·h/mL, the Cmax turned out to be 2330 ng/mL, the clearance worked out at 13.3 mL/min/kg and the half-life is 0.71 h. Moreover, in data set [1] (po, 5 mg/kg, p.o), the AUC(0-t) was 3970 ng·h/mL, the highest concentration (Cmax) worked out at 1290 ng/mL and the half-life was 3.11 h.
`C[C@@H](c1nc2ccc(C(=O)O)cc2n1C[C@@H]1CCO1)N1CCC(c2cccc(OCc3ccc4cnn(CC(F)F)c4c3)n2)CC1` [Example 8, 2-((S)-1-(4-(6-((1-(2,2-difluoroethyl)-1H-indazol-6-yl)methoxy)pyridin-2-yl)piperidin-1-yl)ethyl)-1-(((S)-oxetan-2-yl)methyl)-1H-benzo[d]imidazol-6-carboxylic acid] showed an EC50 at human GLP-1 R of 10.3 nM.
Take `C[C@@H](c1nc2ccc(C(=O)O)cc2n1C[C@@H]1CCO1)N1CCC(c2cccc(OCc3ccc4cnn(CC(F)(F)F)c4c3)n2)CC1` [Example 9, 1-(((S)-oxetan-2-yl)methyl)-2-((S)-1-(4-(6-((1-(2,2,2-trifluoroethyl)-1H-indazol-6-yl)methoxy)pyridin-2-yl)piperidin-1-yl)ethyl)-1H-benzo[d]imidazol-6-carboxylic acid]: a half-maximal effect on human GLP-1 R (EC50) was put at 3.48 nM. Compared with the last compound, the EC50 is about 3-fold lower.
As to `C[C@@H](c1nc2ccc(C(=O)O)nc2n1C[C@@H]1CCO1)N1CCC(c2cccc(OCc3ccc4cnn(CC(F)F)c4c3)n2)CC1` [Example 11, 2-((S)-1-(4-(6-((1-(2,2-difluoroethyl)-1H-indazol-6-yl)methoxy)pyridin-2-yl)piperidin-1-yl)ethyl)-3-(((S)-oxetan-2-yl)methyl)-3H-imidazo[4,5-b]pyridin-5-carboxylic acid], the EC50 on human GLP-1 R was determined as 3.45 nM.
Still for that read-out and setting: as for `C[C@@H](c1nc2ccc(C(=O)O)cc2n1C[C@@H]1CCO1)N1CCC(c2cccc(OCc3ccc(Br)cc3F)n2)CC1` [Example 13, 2-((S)-1-(4-(6-((4-bromo-2-fluorobenzyl)oxy)pyridin-2-yl)piperidin-1-yl)ethyl)-1-(((S)-oxetan-2-yl)methyl)-1H-benzo[d]imidazol-6-carboxylic acid], the figure is 18.7 nM; as for `C[C@@H](c1nc2ccc(C(=O)O)nc2n1C[C@@H]1CCO1)N1CCC(c2cccc(OCc3ccc(C#N)cc3F)n2)CC1` [Example 15, 2-((S)-1-(4-(6-((4-cyano-2-fluorobenzyl)oxy)pyridin-2-yl)piperidin-1-yl)ethyl)-3-(((S)-oxetan-2-yl)methyl)-3H-imidazo[4,5-b]pyridin-5-carboxylic acid], 2.57 nM; as for `C[C@@H](c1nc2ccc(C(=O)O)nc2n1C[C@@H]1CCO1)N1CCC(c2cccc(OCc3ccc4cnn(CC(F)(F)F)c4c3)n2)CC1` [Example 17, 3-(((S)-oxetan-2-yl)methyl)-2-((S)-1-(4-(6-((1-(2,2,2-trifluoroethyl)-1H-indazol-6-yl)methoxy)pyridin-2-yl)piperidin-1-yl)ethyl)-3H-imidazo[4,5-b]pyridin-5-carboxylic acid], 2.92 nM.
`C[C@@H](c1nc2ccc(C(=O)O)nc2n1C[C@@H]1CCO1)N1CCC(c2cccc(OCc3ccnc4cc(F)ccc34)n2)CC1` [Example 18, 2-((S)-1-(4-(6-((7-fluoroquinolin-4-yl)methoxy)pyridin-2-yl)piperidin-1-yl)ethyl)-3-(((S)-oxetan-2-yl)methyl)-3H-imidazo[4,5-b]pyridine-5-carboxylic acid] came in with an EC50 on human GLP-1 R of 2.66 nM.
`C[C@@H](c1nc2ccc(C(=O)O)nc2n1C[C@@H]1CCO1)N1CCC(c2cccc(OCc3cccc4cc(F)cnc34)n2)CC1` [Example 19, 2-((S)-1-(4-(6-((3-fluoroquinolin-8-yl)methoxy)pyridin-2-yl)piperidin-1-yl)ethyl)-3-(((S)-oxetan-2-yl)methyl)-3H-imidazo[4,5-b]pyridin-5-carboxylic acid]: the EC50 at human GLP-1 R stood at 3.94 nM.
Same read-out and setting: as for `C[C@@H](c1nc2ccc(C(=O)O)cc2n1C[C@@H]1CCO1)N1CCC(c2cccc(OCc3ccc(Cl)cc3F)n2)C(O)C1` (stereo partly drawn) [Example 31, 2-((1S)-1-((3,4-trans)-4-(6-((4-chloro-2-fluorobenzyl)oxy)pyridin-2-yl)-3-hydroxypiperidin-1-yl)ethyl)-1-(((S)-oxetan-2-yl)methyl)-1H-benzo[d]imidazol-6-carboxylic acid], the figure is 14.4 nM.
Same read-out and setting: the value for `C[C@@H](c1nc2ccc(C(=O)O)cc2n1C[C@@H]1CCO1)N1CCN(c2cccc(OCc3ccc(Cl)cc3F)n2)CC1` [Example 39A] was 15.5 nM; that for `C[C@@H](c1nc2ccc(C(=O)O)cc2n1C[C@@H]1CCO1)N1CCN(c2ncc(F)c(OCc3ccc(C#N)cc3F)n2)CC1` [Example 42, 2-((S)-1-(4-(4-((4-cyano-2-fluorobenzyl)oxy)-5-fluoropyrimidin-2-yl)piperazin-1-yl)ethyl)-1-(((S)-oxetan-2-yl)methyl)-1H-benzo[d]imidazol-6-carboxylic acid] was 12 nM.
`C[C@@H](c1nc2ccc(C(=O)O)cc2n1C[C@@H]1CCO1)N1CCN(c2cc(C(F)(F)F)cc(OCc3ccc(C#N)cc3F)n2)CC1` [Example 44, 2-((S)-1-(4-(6-((4-cyano-2-fluorobenzyl)oxy)-4-(trifluoromethyl)pyridin-2-yl)piperazin-1-yl)ethyl)-1-(((S)-oxetan-2-yl)methyl)-1H-benzo[d]imidazol-6-carboxylic acid]: the F in data set [1] came to 57.3%. In addition, in data set [1] (iv, 1 mg/kg, i.v), the area under the curve AUC(0-t) was determined as 2260 ng·h/mL, the highest concentration (Cmax) was 4360 ng/mL, the clearance turned out to be 7.37 mL/min/kg and the half-life is 0.69 h. In data set [1] (po, 5 mg/kg, p.o), this compound had an exposure AUC(0-t) of 6470 ng·h/mL, a Cmax of 1410 ng/mL and a half-life of 2.9 h.
The compound `C[C@@H](c1nc2ccc(C(=O)O)cc2n1C[C@@H]1CCO1)N1CCN(c2cc(C#N)cc(OCc3ccc(C#N)cc3F)n2)CC1` [Example 45, 2-((S)-1-(4-(4-cyano-6-((4-cyano-2-fluorobenzyl)oxo)pyridin-2-yl)piperazin-1-yl)ethyl)-1-(((S)-oxetan-2-yl)methyl)-1H-benzo[d]imidazol-6-carboxylic acid] yielded a concentration for a half-maximal effect (EC50) on human GLP-1 R of 24.6 nM. In other words, the double-digit nanomolar range.
